Measurements: patent USH1427H, “Substituted flavonoid compounds, their salts, their manufacture and their use in combination with interleukin-2” (priority 1992, dated 1995)

What was measured:
YAC-1 tumor target = assay: Augmentation of NK activity, 4-hr 51Cr release assay with effector leukocytes from treated animals; assay type: in vivo, mice; settings: Table 1
From the text: The immunomodulatory activity of boosting NK activity is readily determined in accordance with the protocol outlined by Wiltrout et al. in J. Exp. Med. (1984), vol. 160, p. 1431-1449, which is hereby incorporated by reference. Using this protocol, the flavonoid compounds of the present invention must be capable of boosting NK activity at least 2-fold, preferably at least 3-fold, and most preferably at least 4-fold, as measured in lytic units. (See "In Vitro Methods in Cell Mediated and Tumor Immunity", eds. Barry R. Bloom and John R. David, pub. Academic Press (1976), p. 427, for the definition of lytic units.)
Assessment of NK activity. […] Effector leukocytes were isolated from spleen, peritoneal cavity, lungs, and liver as previously described (J. Exp. Med., vol. 160, 1431 (1984) and J. Immunol., vol. 135, 1477 (1985)). NK activity was expressed as either [formula] or LU/1×10^7 cells, with one LU being the number of effector cells required to lyse 20% or 40% of the target cells. Statistical comparisons in NK activity were performed by the student's t-test.
Peak levels of NK-mediated lysis were generally achieved by 24 hour post injection, with levels of NK activity decreasing to background by about day 6.

serum IFN = assay type: in vivo; settings: Table 1
[1] = tested on: Renca renal adenocarcinoma; assay: Survival of Renca-bearing mice treated with flavonoid and/or rIL-2; assay type: in vivo, BALB/C mice; settings: Table 1, flavonoid plus rIL-2
Procedure: Tumor model. The model used for these studies is the Renca renal adenocarcinoma, a tumor that originated spontaneously and is maintained by serial transplant in BALB/C mice (JNCI, vol. 50, 1013 (1973)). […] After injection of 1×10^5 tumor cells under the renal capsule, the solid tumor mass develops rapidly with direct extension to the peritoneal cavity by days 7 to 9 and metastasis to regional lymph nodes and the liver shortly thereafter. […] Flavonoid was administered by injection of 125 mg/kg i.v. and 125 mg/kg i.p., whereas various doses of rIL-2 were delivered by the i.p. route. Routinely, flavonoid was administered 2 to 4 h after nephrectomy of the primary tumor-bearing kidney on day 11, and rIL-2 was administered once per day for 4 successive days beginning on the day after nephrectomy and FAA treatment. Statistical analysis of survival data was performed by the .chi.^2 test.
The flavonoid compound was administered by injection of e.g. 125 mg/kg i.v. and e.g. 125 mg/kg i.p., whereas various doses of rIL-2 were delivered by the i.p. route. Routinely, flavonoid compound was administered 2 to 4 hours after nephrectomy of the primary tumor-bearing kidney on day 11 and rIL-2 was administered once per day for 4 successive days beginning on the day after nephrectomy and flavonoid treatment. Statistical analysis of survival data was performed by the .chi.^2 test.
BALB/C mice (e.g. 10/group) were injected i.v. with 1×10^5 Renca tumor cells on day 0. On day 11 the tumor-bearing kidney was removed and 2 to 4 h later flavonoid (125 mg/kg i.v.+125 mg/kg i.p.) was administered to appropriate groups. Subsequently, beginning on day 12, some of the flavonoid pretreated mice and two groups of previously untreated mice received four daily i.p. injections of rIL-2 at doses of 30,000 U/day. Mice were then monitored for survival and statistical analyses performed by the .chi.^2 test.

[2] = Preliminary preclinical therapeutic synergy between coumarin and rIL2; assay type: in vivo; settings: preliminary preclinical experiments
From the text: In another publication, Wiltrout et al., J. Natl. Cancer Inst.

[3] = tested on: metastatic renal cell cancer; settings: clinical trial, selected patients; Marshal et al.; cited from earlier work
natural killer activity [4] = settings: preliminary studies, Wiltrout et al.; cited from earlier work
[5] = tested on: established murine renal cancer; settings: established murine renal cancer in BALB/c mice; cited from earlier work
natural killer activity [6] = settings: cited from earlier work
Lewis lung carcinoma = settings: cited from earlier work
interferon = settings: preliminary studies, Wiltrout et al.; cited from earlier work
[7] = tested on: Renca murine renal cancer; settings: combined doxorubicin and adoptive immunotherapy with rIL-2; cited from earlier work

C=C(C(=O)O)c1cccc2c(=O)cc(-c3ccccc3)oc12 [LM2891]
NK (YAC-1 tumor target): + | IFN (serum IFN): + | Synergistic Therapy With IL-2 [1]: +

COc1cccc(-c2cc(=O)c3cccc(CC(=O)O)c3o2)c1 [LM2889]
NK (YAC-1 tumor target): + | IFN (serum IFN): + | Synergistic Therapy With IL-2 [1]: +

O=c1ccc2ccccc2o1 [coumarin]
therapeutic synergy between coumarin and rIL2 [2]: no therapeutic synergy was observed | anti-tumor activity in patients with metastatic renal cell cancer [3]: demonstrated anti-tumor activity

O=C(O)Cc1cccc2c(=O)cc(-c3ccccc3)oc12 [flavone-8-acetic acid]
augmentation of natural killer activity in vitro (natural killer activity [4]): failed to detect | anti-tumor effects, combination of flavone-8-acetic acid plus interleukin-2 [5]: synergistic anti-tumor effects | natural killer activity, flavone-8-acetic acid plus rIL-2 (natural killer activity [6]; combination with rIL-2, normal and tumor-bearing mice, Wiltrout et al.): synergistically augmented natural killer activity | natural killer activity in nonlymphoid organs (liver and lungs) as well as in the spleen (natural killer activity [6]; liver, lungs, spleen, Wiltrout et al.): could augment natural killer activity in nonlymphoid organs (liver and lungs) as well as in the spleen | splenic natural killer activity (natural killer activity [6]; spleen, Ching et al.): augments splenic natural killer activity | susceptibility of Lewis lung carcinoma cells implanted in diffusion chambers in the peritoneum (Lewis lung carcinoma; administered ip, diffusion chambers, Finlay et al.): not susceptible | anti-tumor effects against Lewis lung carcinoma (Lewis lung carcinoma; in vivo, mice, Finlay et al.): pronounced anti-tumor effects | tumoricidal activity in vivo compared with direct cytotoxic effects in vitro (Lewis lung carcinoma; mouse, in vivo): more pronounced and occurs more rapidly in vivo than direct cytotoxic effects observed in vitro | induction of interferon in vitro (interferon): failed to detect induction of interferon

O=C(O)Cc1cccc2c(=O)cc(-c3ccco3)oc12 [LM2888]
NK (YAC-1 tumor target): + | IFN (serum IFN): I | Synergistic Therapy With IL-2 [1]: I

COc1cccc2c1C(=O)c1c(O)c3c(c(O)c1C2=O)C[C@@](O)(C(=O)CO)C[C@@H]3O[C@H]1C[C@H](N)[C@H](O)[C@H](C)O1 [doxorubicin]
treatment of Renca murine renal cancer [7]: successfully treated
